Laboratory results from PubChem BioAssay AID330 (DTP/NCI, 2004).
Several values for one entry are separate records, joined by “and”; a condition that tells them apart may be missing. Identical values can stand only once. Toxic doses and inconclusive results are not listed. Rule for the calls: active = survival T/C of 150% or more; inactive = T/C below 125% in these data.

System: P388 leukemia ip, CD2F1 mice, survival T/C
Test: NCI In Vivo Anticancer Drug Screen. Data for tumor model P388 Leukemia (intraperitoneal) in CD2F1 (CDF1) mice
Conditions: endpoint: median survival time, higher = longer survival
Procedure, shortened: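 Mice carrying the transplanted tumor received test compound or vehicle. Survival was recorded in each group, and the value is the treated-group measurement divided by that of the vehicle-treated control group.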

[1] = dose: 60.0 mg/kg/injection, schedule: Q01DX005 (ip), vehicle: saline with Tween-80
[2] = dose: 12.5 mg/kg/injection, schedule: Q01DX009 (ip), vehicle: saline with Tween-80
[3] = dose: 25.0 mg/kg/injection, schedule: Q01DX009 (ip), vehicle: saline with Tween-80
[4] = dose: 50.0 mg/kg/injection, schedule: Q01DX009 (ip), vehicle: saline with Tween-80
[5] = dose: 100.0 mg/kg/injection, schedule: Q01DX009 (ip), vehicle: saline with Tween-80
[6] = dose: 200.0 mg/kg/injection, schedule: Q01DX009 (ip), vehicle: saline with Tween-80
[7] = dose: 0.78 mg/kg/injection, schedule: Q01DX009 (ip), vehicle: water
[8] = dose: 1.56 mg/kg/injection, schedule: Q01DX009 (ip), vehicle: water
[9] = dose: 2.35 mg/kg/injection, schedule: Q04DX003 (ip), vehicle: water
[10] = dose: 3.13 mg/kg/injection, schedule: Q01DX009 (ip), vehicle: water
[11] = dose: 9.4 mg/kg/injection, schedule: Q04DX003 (ip), vehicle: water
[12] = dose: 50.0 mg/kg/injection, schedule: Q01DX009 (ip), vehicle: Klucel (hydroxypropylcellulose) (HPC)
[13] = dose: 100.0 mg/kg/injection, schedule: Q01DX009 (ip), vehicle: Klucel (hydroxypropylcellulose) (HPC)
[14] = dose: 200.0 mg/kg/injection, schedule: Q01DX009 (ip), vehicle: Klucel (hydroxypropylcellulose) (HPC)

Measured: T/C

CC([NH-])C(C)[NH-].[Cl][Pt+2][Cl] (stereo not drawn)
active: dose: 12.5 mg/kg/injection, schedule: Q01DX001 (ip), vehicle: Klucel (hydroxypropylcellulose) (HPC) 153 % of control and 154 % of control | dose: 25.0 mg/kg/injection, schedule: Q01DX001 (ip), vehicle: Klucel (hydroxypropylcellulose) (HPC) 184 % of control
inactive: dose: 3.12 mg/kg/injection, schedule: Q01DX001 (ip), vehicle: Klucel (hydroxypropylcellulose) (HPC) 119 % of control

N=c1nc(N)nc2c3ccccc3nnn12
inactive: dose: 15.0 mg/kg/injection, schedule: Q01DX005 (ip), vehicle: saline with Tween-80 109 % of control | dose: 30.0 mg/kg/injection, schedule: Q01DX005 (ip), vehicle: saline with Tween-80 109 % of control | [1] 106 % of control and 109 % of control

c1cc(Nc2ccc(Nc3ccc(CN4CCCCC4)cc3)cc2)ccc1CN1CCCCC1
inactive: dose: 12.5 mg/kg/injection, schedule: Q01DX009 (ip), vehicle: saline + Tween-80 + alcohol 105 % of control | [2] 103 % of control | dose: 25.0 mg/kg/injection, schedule: Q01DX009 (ip), vehicle: saline + Tween-80 + alcohol 111 % of control and 114 % of control | [3] 107 % of control | dose: 50.0 mg/kg/injection, schedule: Q01DX009 (ip), vehicle: saline + Tween-80 + alcohol 114 % of control and 115 % of control | [4] 111 % of control | dose: 100.0 mg/kg/injection, schedule: Q01DX009 (ip), vehicle: saline + Tween-80 + alcohol 117 % of control and 118 % of control | [5] 99 % of control | dose: 200.0 mg/kg/injection, schedule: Q01DX009 (ip), vehicle: saline + Tween-80 + alcohol 124 % of control | [6] 106 % of control | dose: 400.0 mg/kg/injection, schedule: Q01DX009 (ip), vehicle: saline with Tween-80 114 % of control

COc1cccc2c1C(=O)c1c(O)c3c(c(O)c1C2=O)C[C@@](O)(C(O)CO)C[C@@H]3OC1CC(NCc2ccccc2)C(O)C(C)O1 (stereo partly drawn)
active: dose: 0.39 mg/kg/injection, schedule: Q01DX009 (ip), vehicle: water 158 % of control and 167 % of control | [7] 157 % of control and 162 % of control and 169 % of control | [8] 157 % of control and 190 % of control and 196 % of control | [10] 163 % of control and 176 % of control and 192 % of control
inactive: dose: 1.18 mg/kg/injection, schedule: Q04DX003 (ip), vehicle: water 106 % of control | [9] 106 % of control | [11] 116 % of control

Nc1nccn2cnnc12
inactive: dose: 100.0 mg/kg/injection, schedule: Q01DX001 (ip), vehicle: Klucel (hydroxypropylcellulose) (HPC) 100 % of control | dose: 200.0 mg/kg/injection, schedule: Q01DX001 (ip), vehicle: Klucel (hydroxypropylcellulose) (HPC) 104 % of control | dose: 400.0 mg/kg/injection, schedule: Q01DX001 (ip), vehicle: Klucel (hydroxypropylcellulose) (HPC) 100 % of control

O=C1c2ccccc2C(=O)N1O
inactive: dose: 50.0 mg/kg/injection, schedule: Q01DX009 (ip), vehicle: saline 93 % of control | dose: 100.0 mg/kg/injection, schedule: Q01DX009 (ip), vehicle: saline 100 % of control

COC(=O)C1=NC(=S)N=C(C(=O)OC)C12Cc1ccccc1C2=O
inactive: dose: 60.0 mg/kg/injection, schedule: Q01DX005 (ip), vehicle: Klucel (hydroxypropylcellulose) (HPC) 92 % of control | dose: 120.0 mg/kg/injection, schedule: Q01DX005 (ip), vehicle: Klucel (hydroxypropylcellulose) (HPC) 93 % of control | dose: 240.0 mg/kg/injection, schedule: Q01DX005 (ip), vehicle: Klucel (hydroxypropylcellulose) (HPC) 102 % of control

NNc1ccc(-n2ncc(C(N)=O)c2N)nn1
inactive: dose: 50.0 mg/kg/injection, schedule: Q01DX005 (ip), vehicle: other 104 % of control | dose: 100.0 mg/kg/injection, schedule: Q01DX005 (ip), vehicle: other 107 % of control

COc1cccc2c1C(=O)c1c(O)c3c(c(O)c1C2=O)CC(O)(/C(CO)=N/NC(=O)CCC(=O)N/N=C(\CO)C1(O)Cc2c(O)c4c(c(O)c2C(OC2CC(N)C(O)C(C)O2)C1)C(=O)c1c(OC)cccc1C4=O)CC3OC1CC(N)C(O)C(C)O1 (stereo not drawn)
114 % of control and 309 % of control: dose: 6.25 mg/kg/injection, schedule: Q01DX009 (ip), vehicle: water
active: [7] 152 % of control | [8] 170 % of control and 196 % of control | [10] 218 % of control and 222 % of control | dose: 18.8 mg/kg/injection, schedule: Q04DX003 (ip), vehicle: water 154 % of control | dose: 37.5 mg/kg/injection, schedule: Q04DX003 (ip), vehicle: water 181 % of control
inactive: [9] 110 % of control | dose: 4.7 mg/kg/injection, schedule: Q04DX003 (ip), vehicle: water 114 % of control | [11] 121 % of control and 124 % of control | dose: 12.5 mg/kg/injection, schedule: Q01DX009 (ip), vehicle: water 102 % of control and 86 % of control | dose: 75.0 mg/kg/injection, schedule: Q04DX003 (ip), vehicle: water 118 % of control

O=P(c1ccccc1)(c1ccccc1)c1ccccc1.O=P(c1ccccc1)(c1ccccc1)c1ccccc1.O=P(c1ccccc1)(c1ccccc1)c1ccccc1.O=P(c1ccccc1)(c1ccccc1)c1ccccc1.[Cr+3].[O-][Cl+3]([O-])([O-])O
inactive: dose: 100.0 mg/kg/injection, schedule: Q04DX003 (ip), vehicle: saline + Tween-80 + alcohol 101 % of control | dose: 200.0 mg/kg/injection, schedule: Q04DX003 (ip), vehicle: saline + Tween-80 + alcohol 100 % of control

N#Cc1ccc(N=Cc2ccc(C=Nc3ccc(C#N)c(C#N)c3)cc2)cc1C#N
inactive: [2] 93 % of control | [3] 104 % of control | [4] 88 % of control | [5] 87 % of control | [6] 97 % of control

C=C(COC(C)=O)[C@H](C)C(=O)C1OCOC(C2CC(=O)NC(=O)C2)[C@@H]1OC(C)=O (stereo partly drawn)
inactive: dose: 0.01 mg/kg/injection, schedule: Q01DX009 (ip), vehicle: distilled water + alcohol 102 % of control | dose: 0.03 mg/kg/injection, schedule: Q01DX009 (ip), vehicle: distilled water + alcohol 102 % of control | dose: 0.06 mg/kg/injection, schedule: Q01DX009 (ip), vehicle: distilled water + alcohol 102 % of control | dose: 0.12 mg/kg/injection, schedule: Q01DX009 (ip), vehicle: distilled water + alcohol 109 % of control

O=C1CC2CCC1(CS(=O)(=O)OCCCCOS(=O)(=O)CC13CCC(CC1=O)C3)C2
inactive: [1] 103 % of control | dose: 120.0 mg/kg/injection, schedule: Q01DX005 (ip), vehicle: saline with Tween-80 103 % of control | dose: 240.0 mg/kg/injection, schedule: Q01DX005 (ip), vehicle: saline with Tween-80 93 % of control

CCN=c1c([N+](=O)[O-])c(NC(=O)c2ccccc2)sn1CC
inactive: dose: 100.0 mg/kg/injection, schedule: Q04DX002 (ip), vehicle: Klucel (hydroxypropylcellulose) (HPC) 97 % of control | dose: 200.0 mg/kg/injection, schedule: Q04DX002 (ip), vehicle: Klucel (hydroxypropylcellulose) (HPC) 99 % of control | dose: 400.0 mg/kg/injection, schedule: Q04DX002 (ip), vehicle: Klucel (hydroxypropylcellulose) (HPC) 107 % of control

COc1cc2c(cc1OC)NC(=O)C2
inactive: dose: 50.0 mg/kg/injection, schedule: Q04DX003 (ip), vehicle: saline with Tween-80 97 % of control | dose: 100.0 mg/kg/injection, schedule: Q04DX003 (ip), vehicle: saline with Tween-80 98 % of control

O=C(CCl)NC(=O)CCl
inactive: [3] 90 % of control

COc1ccc2c(c1O)Oc1c(O)ccc3c1C(C2)N(C)CC3 (stereo not drawn)
inactive: dose: 2.5 mg/kg/injection, schedule: Q01DX005 (ip), vehicle: Klucel (hydroxypropylcellulose) (HPC) 107 % of control | dose: 5.0 mg/kg/injection, schedule: Q01DX005 (ip), vehicle: Klucel (hydroxypropylcellulose) (HPC) 100 % of control | dose: 10.0 mg/kg/injection, schedule: Q01DX005 (ip), vehicle: Klucel (hydroxypropylcellulose) (HPC) 102 % of control | dose: 20.0 mg/kg/injection, schedule: Q01DX005 (ip), vehicle: Klucel (hydroxypropylcellulose) (HPC) 100 % of control

CCOC(=O)CC1C(=O)N(c2nc(-c3ccc(Br)cc3)cs2)N=C1C (stereo not drawn)
inactive: [12] 96 % of control | [13] 101 % of control | [14] 103 % of control

O=C1CCN2CO[C@H](c3ccccc3)C[C@@H]2C1
inactive: dose: 12.5 mg/kg/injection, schedule: Q01DX005 (ip), vehicle: Klucel (hydroxypropylcellulose) (HPC) 103 % of control | dose: 25.0 mg/kg/injection, schedule: Q01DX005 (ip), vehicle: Klucel (hydroxypropylcellulose) (HPC) 102 % of control | dose: 50.0 mg/kg/injection, schedule: Q01DX005 (ip), vehicle: Klucel (hydroxypropylcellulose) (HPC) 102 % of control

CC(=O)Nc1nnc(SSc2nnc(NC(C)=O)s2)s1
inactive: [12] 90 % of control | [13] 102 % of control | [14] 94 % of control
